Laboratory results as given in patent publication US20220273732A1, “PROBIOTIC THERAPIES FOR SOCIAL DEFICIT AND STRESS RESPONSE” (California Institute of Technology, priority 2021, published 2022).
“Also recorded” adds a separate entry of the source. No end group written: not given here.

Legend:
mice [1] = test: Reciprocal social interaction (RSI) test, social activity; format: in vivo; details: for social activity of ABX adrenalectomized mice: under drug treatment, compared to ABX sham and vehicle sham mice
mice [2] = test: Non-social activity (self-grooming, digging, rearing) in the RSI paradigm; format: in vivo
From the text: Minimal aggressive behaviors were observed. Each novel mouse was used for testing up to two times per day. Subject mice undergoing repeated testing throughout the experiment were confronted with a novel mouse each time. The following social investigation behaviors constituted “social activity” and were scored as such: anogenital sniffing, nose-nose sniffing, active approach, and push under/crawl. The following solitary behaviors during social interaction constituted “non-social activity” and were scored as such: self-grooming, digging, and rearing. All behaviors were analyzed using of ETHOM software (Shih, 2000).
Novel cage behavior is a widely-used test for measuring the non-social activity in a novel environment. The subject mouse was placed in an unused, sterilized cage. Non-social activity was video recorded for 5 minutes. The following solitary behaviors during social interaction constituted “non-social activity” and were scored as such: self-grooming, digging, and rearing. All behaviors were analyzed using of ETHOM software (Shih, 2000).

corticosterone = test: Serum corticosterone measurement (Corticosterone EIA Kit); format: in vivo, mice; details: for serum corticosterone levels: GF mice, 50 mg/kg i.p., vs CMC vehicle, 50 mg/kg; for serum corticosterone: CNO i.p.
Procedure: Whole blood was collected either by cardiac puncture or retro-orbital bleeding, and placed into Micro tube Z gel (41.1378.005; Sarstedt). Serum was separated by centrifuge at 10,000×g for five minutes, and stored at −80° C. until use. Corticosterone levels were detected by the Corticosterone EIA Kit (K014-H5; Arbor Assays) using the manufacturer's protocol. Due to the nature of the circadian rhythm for the corticosterone, the blood sample was collected during 1:00-5:00 pm on each day of experiment.

c-Fos = c-Fos staining of brain sections after social interaction; format: in vivo; details: ABX hM4Di mice, CNO
Procedure: All brain samples for c-Fos expression were collected one hour after the reciprocal social interaction test. Mice were anesthetized by intraperitoneal injection with a mixture of 100 mg/kg ketamine and 10 mg/kg xylazine. The mice were then perfused via the cardiovascular system with PBS followed by 4% paraformaldehyde (Electron Microscopy Sciences). Brains were removed and post-fixed in 4% paraformaldehyde 3-5 days at 4° C. The brains were kept in PBS with 0.02% sodium azide at 4° C. until sectioning.
The brains were embedded in 4% UltraPure low melting point agarose (ThermoFisher) and were coronally sectioned by vibratome (VT1000S; Leica) at a thickness of 50 μm, with the exception of the brain sections for FIGS. 1D-1F that were sectioned at a thickness of 100 μm. Brain sections of 50 μm were collected and stained every 0.15 mm. Brain sections of 100 μm were collected sequentially and stained entirely. The brain sections were stored as free-floating in PBS with 0.02% sodium azide at 4° C. until staining. […] The next day, sections were incubated with fluorescence-conjugated secondary antibody for 1.5-2 hours at room temperature. […] The fluorescence-conjugated secondary antibodies were donkey anti-goat (1:1000), donkey anti-rabbit (1:1000), and donkey anti-mouse (1:1000) (ThermoFisher Scientific). […]

Molecule: CRF: synthetic corticotropin-releasing factor (SEEPPISLDLTFHLLREVLEMARAEQLAQQAHSNRKLMEII; ends and bridges not checked; UniProt P06850 154-194, looked up)
- social activity toward a novel mouse (mice [1]; injection into the PVN of SPF mice (210 μM or 42 μM, 450 nL per hemisphere)): dramatically reduced
- non-social activity (mice [2]; high levels of CRF into PVN of SPF mice): reversed these changes
- non-social activity (mice [2]; low levels of CRF into PVN of SPF mice): increased

Molecule: CC(C)(C(=O)c1cccnc1)c1cccnc1 [metyrapone]
- social activity (mice [1]; GF mice, 50 mg/kg i.p., 40 min before test, vs CMC vehicle): significantly increased
- social activity of ABX sham mice compared to vehicle sham mice (mice [1]; during drug treatment i.p. (RU-486 40 mg/kg, MET 50 mg/kg)): increased
- social activity of ABX adrenalectomized mice (mice [1]): elevated
- serum corticosterone levels (corticosterone; after social interaction): effectively reduced
- serum corticosterone levels (corticosterone; after social interaction, listed as MET): reduction

Molecule: C[C@]12C[C@H](O)[C@H]3[C@@H](CCC4=CC(=O)CC[C@@]43C)[C@@H]1CC[C@@H]2C(=O)CO [corticosterone]
- social behavior (mice [1]; acute injection, 10 mg/kg i.p. on two consecutive days, all groups (vehicle sham, ABX sham, ABX ADX)): impaired
- social activity (mice [1]; injection into the DG and BNST of SPF mice (corticosterone 65 μM, dexamethasone 20 mM)): decreased

Molecule: CC#C[C@]1(O)CC[C@H]2[C@@H]3CCC4=CC(=O)CCC4=C3[C@@H](c3ccc(N(C)C)cc3)C[C@@]21C [RU-486, mifepristone]
- social activity (mice [1]; ABX control mice vs ABX Nr3cl^ΔDG or Nr3cl^ΔBNST mice, 40 mg/kg i.p.): enhanced social activity only in ABX control mice
- social activity of ABX adrenalectomized mice (mice [1]): elevated

Molecule: C[N+]1([O-])CCN(C2=Nc3cc(Cl)ccc3Nc3ccccc32)CC1 [CNO, clozapine N-oxide]
- social behavior (mice [1]; ABX Crh-ires-Cre mice with hM4Di in PVN, CNO i.p. 2-3 mg/kg): dramatically increased
- social behavior (mice [1]; ABX mice receiving control virus (mCherry) in PVN, CNO i.p.): no change
- social behavior (mice [1]; SPF hM3Dq mice (PVN), CNO i.p.): significantly decreased
- serum corticosterone (corticosterone; ABX hM4Di mice (PVN), after social interaction): decreased; also recorded: reduction
- serum corticosterone (corticosterone; SPF hM3Dq mice (PVN)): increased
- c-Fos expression in the BNST or DG (c-Fos): did not alter
- c-Fos staining in the PVN (c-Fos): decreased
- non-social activity (mice [2]; SPF hM3Dq mice, chemogenetic activation of PVN CRH neurons): increased
